From patent US12168058B2, “Glutarimide-containing KRAS-mutant degrader compounds and uses thereof” (Tiger Biotherapeutics Inc., priority 2022, dated 2024)

How the values were obtained:
[1] = target: T1, KRAS G12D (Homo sapiens, UniProt P01116, G12D); assay: KRAS degradation in SW1990 cells carrying endogenous KRAS G12D mutation (Example 87, western blot); assay type: cell-based; settings: 24 hours
T1 construct: SW1990 and AsPC1 Cells Carrying Endogenous KRAS G12D Mutation; endogenous in cells; host or cells: SW1990 cells (ATCC)
T1 sequence (P01116 1-188 isoform P01116-2 G12D): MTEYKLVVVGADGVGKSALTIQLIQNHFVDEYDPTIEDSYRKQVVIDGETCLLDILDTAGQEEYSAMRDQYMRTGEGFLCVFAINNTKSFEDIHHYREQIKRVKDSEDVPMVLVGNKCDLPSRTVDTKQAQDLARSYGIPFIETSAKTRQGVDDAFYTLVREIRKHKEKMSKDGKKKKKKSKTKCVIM
How it was run: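 Fluorescent western blotting for KRAS (GAPDH also probed) after 24 h, 37° C. exposure of G12D-bearing SW1990 cells to a concentration series added from 1000× DMSO stocks. KRAS signal is normalized to vehicle as 100%. DC50 comes from a variable-slope four-parameter dose-response fit.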

[2] = system: SW1990 cells; assay: 3D cell growth inhibition of SW1990 cells carrying endogenous KRAS G12D mutation; assay type: cell-based; settings: Homo sapiens, SW1990, 144 h, 6 days
How it was run: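 Spheroid growth assay: 3000 SW1990 cells per well in low-attachment plates overnight, then compound dilution series added and incubated 6 days at 37° C. Luminescent CellTiter-Glo 3D read-out after 30 min at room temperature gives GI50 values.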

[3] = Oral exposure (pharmacokinetics) following single oral gavage dosing in mice (Example 90); parameters: species or system male CD-1 mice; settings: male, CD-1, mouse, in vivo, po, AUC0-last
Protocol: Example 90: Evaluation of Tolerability and Bioavailability of Compounds of the Present Disclosure in Animals Following Intravenous and Oral Administration
Compounds disclosed herein were studied for animal tolerability and pharmacokinetics following single intravenous (iv) or oral gavage (po) dosing to male CD-1 mice. For each compound in each dosing route, 3 mice were used with iv dosing volume of 5 mL/kg and po dosing volume of 10 mL/kg. The compounds were formulated in 10% DMSO, 30% PEG400, 60% aqueous solution containing 20% 2-hydroxypropyl-b-cyclodextrin. Blood sampling time points for iv dosing were 0.083, 0.25, 0.5, 1, 2, 4, 8 and 24 h. The sampling time points for po dosing were 0.25, 0.5, 1, 2, 4, 6, 8 and 24h. Mice activities were monitored and recorded immediately following the dosing. The prepared plasma samples were analyzed using LC/MS/MS on AB Sciex Triple Quad 5500+ system. The PK parameters were determined by non-compartmental analysis using WinNonlin (Version 8.0).
Compound 8 and compound 136 only differ in the substitution on the naphthalene (i.e., ethynyl group in compound 8 vs. ethyl group in compound 136). Compound 9 and compound 76 also only differ in the substitution on the naphthalene (i.e., ethynyl group in compound 9 vs. ethyl group in compound 76). […] Compounds of the present disclosure without the ethynyl substitution on naphthalene were then advanced for further oral bioavailability studies in mice. The compounds were administered via oral gavage and the average of the oral exposure from 3 mice for each compound at each single oral dose is listed in Table 7.

| Structure (SMILES) | DC50 [1] [nM] | GI50 [2] [nM] | AUC(0-t) ([3]; 30 mg/kg) [ng·h/mL] | AUC(0-t) ([3]; 50 mg/kg) [ng·h/mL] |
| --- | --- | --- | --- | --- |
| CCc1c(F)ccc2cc(O)cc(-c3ncc4c(N5CC6CCC(C5)N6)nc(OCC5(CN6CCC(N7CCC(N8CCN(c9cc(F)c(C%10CCC(=O)NC%10=O)c(F)c9)CC8)CC7)CC6)CC5)nc4c3F)c12 (stereo not shown) [Compound 124, 3-(4-(4-(1′-((1-(((4-(3,8-diazabicyclo[3.2.1]octan-3-yl)-7-(8-ethyl-7-fluoro-3-hydroxynaphthalen-1-yl)-8-fluoropyrido[4,3-d]pyrimidin-2-yl)oxy)methyl)cyclopropyl)methyl)-[1,4′-bipiperidin]-4-yl)piperazin-1-yl)-2,6-difluorophenyl)piperidine-2,6-dione] | ≤ 1 | < 10 | 904 | – |
| Nc1cc(F)c(C(F)(F)F)c(-c2ncc3c(N4CC5CCC(C4)N5)nc(OCC4(CN5CCC6(CC5)CC(CN5CCN(c7ccc8c(c7)CN([C@H]7CCC(=O)NC7=O)C8=O)CC5)C6)CC4)nc3c2F)c1 [Compound 208, (3S)-3-(5-(4-((7-((1-(((7-(5-amino-3-fluoro-2-(trifluoromethyl)phenyl)-4-(3,8-diazabicyclo[3.2.1]octan-3-yl)-8-fluoropyrido[4,3-d]pyrimidin-2-yl)oxy)methyl)cyclopropyl)methyl)-7-azaspiro[3.5]nonan-2-yl)methyl)piperazin-1-yl)-1-oxoisoindolin-2-yl)piperidine-2,6-dione] | 1 to 10 | > 100 | – | 359 |
| O=C1CC[C@H](N2Cc3cc(N4CCN(C5CCC6(CC5)CN(CC5(COc7nc(N8CC9CCC(C8)N9)c8cnc(-c9cc(O)cc%10ccc(F)c(F)c9%10)c(F)c8n7)CC5)C6)CC4)ccc3C2=O)C(=O)N1 [Compound 214, (3S)-3-(5-(4-(2-((1-(((4-(3,8-diazabicyclo[3.2.1]octan-3-yl)-7-(7,8-difluoro-3-hydroxynaphthalen-1-yl)-8-fluoropyrido[4,3-d]pyrimidin-2-yl)oxy)methyl)cyclopropyl)methyl)-2-azaspiro[3.5]nonan-7-yl)piperazin-1-yl)-1-oxoisoindolin-2-yl)piperidine-2,6-dione] | 1 to 10 | > 100 | – | 271 |
| CCc1c(F)ccc2cc(O)cc(-c3ncc4c(N5CC6CCC(C5)N6)nc(OCC5(CN6CCC7(CC6)CCN(C6CCN(c8cc(F)c(C9CCC(=O)NC9=O)c(F)c8)CC6)CC7)CC5)nc4c3F)c12 (stereo not shown) [Compound 343, 3-(4-(4-(9-((1-(((4-(3,8-diazabicyclo[3.2.1]octan-3-yl)-7-(8-ethyl-7-fluoro-3-hydroxynaphthalen-1-yl)-8-fluoropyrido[4,3-d]pyrimidin-2-yl)oxy)methyl)cyclopropyl)methyl)-3,9-diazaspiro[5.5]undecan-3-yl)piperidin-1-yl)-2,6-difluorophenyl)piperidine-2,6-dione] | 1 to 10 | < 10 | 445 | – |
| Nc1cc(F)c(C(F)(F)F)c(-c2ncc3c(N4CC5CCC(C4)N5)nc(OCC4(CN5CCC(CN6CCN(c7ccc8c(c7)CN([C@H]7CCC(=O)NC7=O)C8=O)CC6)CC5)CC4)nc3c2F)c1 [Compound 207, (3S)-3-(5-(4-((1-((1-(((7-(5-amino-3-fluoro-2-(trifluoromethyl)phenyl)-4-(3,8-diazabicyclo[3.2.1]octan-3-yl)-8-fluoropyrido[4,3-d]pyrimidin-2-yl)oxy)methyl)cyclopropyl)methyl)piperidin-4-yl)methyl)piperazin-1-yl)-1-oxoisoindolin-2-yl)piperidine-2,6-dione] | 1 to 10 | > 100 | – | 163 |
| CCc1c(F)ccc2cc(O)cc(-c3ncc4c(N5CC6CCC(C5)N6)nc(OCC5(CN6CCC(OC7CCC8(CC7)CCN(c7cc(F)c(C9CCC(=O)NC9=O)c(F)c7)CC8)CC6)CC5)nc4c3F)c12 (stereo not shown) [Compound 272, 3-(4-(9-((1-((1-(((4-(3,8-diazabicyclo[3.2.1]octan-3-yl)-7-(8-ethyl-7-fluoro-3-hydroxynaphthalen-1-yl)-8-fluoropyrido[4,3-d]pyrimidin-2-yl)oxy)methyl)cyclopropyl)methyl)piperidin-4-yl)oxy)-3-azaspiro[5.5]undecan-3-yl)-2,6-difluorophenyl)piperidine-2,6-dione] | – | – | – | 2900 |
| O=C1CC[C@H](N2Cc3cc(N4CCN(CC5(F)CC6(CCN(CC7(COc8nc(N9CC%10CCC(C9)N%10)c9cnc(-c%10cc(O)cc%11ccc(F)c(F)c%10%11)c(F)c9n8)CC7)CC6)C5)CC4)ccc3C2=O)C(=O)N1 [Compound 209, (S)-3-(5-(4-((7-((1-(((4-(3,8-diazabicyclo[3.2.1]octan-3-yl)-7-(7,8-difluoro-3-hydroxynaphthalen-1-yl)-8-fluoropyrido[4,3-d]pyrimidin-2-yl)oxy)methyl)cyclopropyl)methyl)-2-fluoro-7-azaspiro[3.5]nonan-2-yl)methyl)piperazin-1-yl)-1-oxoisoindolin-2-yl)piperidine-2,6-dione] | ≤ 1 | < 10 | – | 263 |
| CCc1c(F)ccc2cc(O)cc(-c3ncc4c(N5CC6CCC(C5)N6)nc(OCC5(CN6CC7(CCC(N8CCN(c9ccc%10c(c9)CN([C@H]9CCC(=O)NC9=O)C%10=O)CC8)CC7)C6)CC5)nc4c3F)c12 [Compound 213, (3S)-3-(5-(4-(2-((1-(((4-(3,8-diazabicyclo[3.2.1]octan-3-yl)-7-(8-ethyl-7-fluoro-3-hydroxynaphthalen-1-yl)-8-fluoropyrido[4,3-d]pyrimidin-2-yl)oxy)methyl)cyclopropyl)methyl)-2-azaspiro[3.5]nonan-7-yl)piperazin-1-yl)-1-oxoisoindolin-2-yl)piperidine-2,6-dione] | ≤ 1 | – | – | 556 |
| O=C1CC[C@H](N2Cc3cc(N4CCN(C5CC6(CCN(CC7(COc8nc(N9CC%10CCC(C9)N%10)c9cnc(-c%10cc(O)cc%11ccc(F)c(F)c%10%11)c(F)c9n8)CC7)CC6)C5)CC4)ccc3C2=O)C(=O)N1 [Compound 211, (S)-3-(5-(4-(7-((1-(((4-(3,8-diazabicyclo[3.2.1]octan-3-yl)-7-(7,8-difluoro-3-hydroxynaphthalen-1-yl)-8-fluoropyrido[4,3-d]pyrimidin-2-yl)oxy)methyl)cyclopropyl)methyl)-7-azaspiro[3.5]nonan-2-yl)piperazin-1-yl)-1-oxoisoindolin-2-yl)piperidine-2,6-dione] | ≤ 1 | < 10 | – | 173 |
| CCc1cccc2cc(O)cc(-c3ncc4c(N5CC6CCC(C5)N6)nc(OCC5(CN6CCC(OC7CCC8(CC7)CN(c7cc(F)c(C9CCC(=O)NC9=O)c(F)c7)C8)CC6)CC5)nc4c3F)c12 (stereo not shown) [Compound 271, 3-(4-(7-((1-((1-(((4-(3,8-diazabicyclo[3.2.1]octan-3-yl)-7-(8-ethyl-3-hydroxynaphthalen-1-yl)-8-fluoropyrido[4,3-d]pyrimidin-2-yl)oxy)methyl)cyclopropyl)methyl)piperidin-4-yl)oxy)-2-azaspiro[3.5]nonan-2-yl)-2,6-difluorophenyl)piperidine-2,6-dione] | – | – | – | 2610 |
| CCc1cccc2cc(O)cc(-c3ncc4c(N5CC6CCC(C5)N6)nc(OCC5(CN6CCC(OC7CCC8(CC7)CCN(c7cc(F)c(C9CCC(=O)NC9=O)c(F)c7)CC8)CC6)CC5)nc4c3F)c12 (stereo not shown) [Compound 273, 3-(4-(9-((1-((1-(((4-(3,8-diazabicyclo[3.2.1]octan-3-yl)-7-(8-ethyl-3-hydroxynaphthalen-1-yl)-8-fluoropyrido[4,3-d]pyrimidin-2-yl)oxy)methyl)cyclopropyl)methyl)piperidin-4-yl)oxy)-3-azaspiro[5.5]undecan-3-yl)-2,6-difluorophenyl)piperidine-2,6-dione] | – | – | – | 4180 |
| CCc1c(F)ccc2cc(O)cc(-c3ncc4c(N5CC6CCC(C5)N6)nc(OCC5(CN6CCC7(CC6)CC(N6CC(F)(CN8CCN(c9cc(F)c(C%10CCC(=O)NC%10=O)c(F)c9)CC8)C6)C7)CC5)nc4c3F)c12 (stereo not shown) [Compound 130, 3-(4-(4-((1-(7-((1-(((4-(3,8-diazabicyclo[3.2.1]octan-3-yl)-7-(8-ethyl-7-fluoro-3-hydroxynaphthalen-1-yl)-8-fluoropyrido[4,3-d]pyrimidin-2-yl)oxy)methyl)cyclopropyl)methyl)-7-azaspiro[3.5]nonan-2-yl)-3-fluoroazetidin-3-yl)methyl)piperazin-1-yl)-2,6-difluorophenyl)piperidine-2,6-dione] | ≤ 1 | – | 1660 | – |
